What was measured:
Type in all cases: biochemical
B-Raf V600E = target: T1, B-Raf V600E (Homo sapiens, UniProt P15056, V600E); experiment: AlphaScreen kinase assay, B-Raf V600E; details: read-out: IC50, activity toward kinase B-Raf V600E
T1 construct: P4254. pFastBacBD-CDC37 BRAF D437-K722-X, V600E; His6 with pFastBac HT leader (TEV site) (N); made in house; host or cells: Sf9 (baculovirus; chaperone CDC37 co-expressed)

Btk = target: T2, Btk (Homo sapiens, UniProt Q06187); experiment: Z'-Lyte FRET kinase assay (Invitrogen), Btk; details: read-out: IC50, activity toward kinase Btk
T2 construct: purchased Invitrogen (assay run by Invitrogen)
T2 sequence (Q06187 whole entry): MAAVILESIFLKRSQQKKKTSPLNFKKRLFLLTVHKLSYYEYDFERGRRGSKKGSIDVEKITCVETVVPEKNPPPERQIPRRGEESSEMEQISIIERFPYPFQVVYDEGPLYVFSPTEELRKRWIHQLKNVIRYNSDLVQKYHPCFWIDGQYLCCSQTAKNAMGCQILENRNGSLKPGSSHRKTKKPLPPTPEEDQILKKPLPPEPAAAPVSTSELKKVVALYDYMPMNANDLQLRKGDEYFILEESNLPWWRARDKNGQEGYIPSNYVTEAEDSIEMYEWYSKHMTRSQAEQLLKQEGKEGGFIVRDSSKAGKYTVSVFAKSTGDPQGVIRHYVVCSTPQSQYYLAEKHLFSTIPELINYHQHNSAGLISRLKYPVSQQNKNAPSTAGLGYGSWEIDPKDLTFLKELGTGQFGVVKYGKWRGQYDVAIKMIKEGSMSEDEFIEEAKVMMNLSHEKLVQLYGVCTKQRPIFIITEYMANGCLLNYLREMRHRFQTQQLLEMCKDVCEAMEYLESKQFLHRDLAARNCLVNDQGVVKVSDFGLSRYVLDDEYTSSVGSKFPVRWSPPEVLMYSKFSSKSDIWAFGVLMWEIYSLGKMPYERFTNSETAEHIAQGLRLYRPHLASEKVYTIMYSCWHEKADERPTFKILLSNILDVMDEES

FGFR1 = target: T3, FGFR1 (Homo sapiens, UniProt P11362, C488A/C584S); experiment: AlphaScreen kinase assay, FGFR1; details: read-out: IC50, activity toward kinase FGFR
T3 construct: P1351.pET N6 BI-PTP FGFR A458-E765-X C488A, C584S; made in house; host or cells: E. coli (PTP1B co-expressed)
T3 sequence (P11362 458-765 C488A/C584S): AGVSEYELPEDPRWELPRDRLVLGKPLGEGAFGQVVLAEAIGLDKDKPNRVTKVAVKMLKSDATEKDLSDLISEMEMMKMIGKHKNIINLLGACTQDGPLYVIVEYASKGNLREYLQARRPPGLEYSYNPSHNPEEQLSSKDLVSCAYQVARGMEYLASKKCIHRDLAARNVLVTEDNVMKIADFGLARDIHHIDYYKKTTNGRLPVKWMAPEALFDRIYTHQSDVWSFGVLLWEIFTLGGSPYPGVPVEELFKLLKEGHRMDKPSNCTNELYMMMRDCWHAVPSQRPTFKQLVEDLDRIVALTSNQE

Kdr = target: T4, Kdr (Homo sapiens, UniProt P35968); experiment: Z'-Lyte FRET kinase assay (Invitrogen), Kdr; details: read-out: IC50, activity toward kinase Kdr
T4 construct: purchased Invitrogen (assay run by Invitrogen)
T4 sequence (P35968 20-1356): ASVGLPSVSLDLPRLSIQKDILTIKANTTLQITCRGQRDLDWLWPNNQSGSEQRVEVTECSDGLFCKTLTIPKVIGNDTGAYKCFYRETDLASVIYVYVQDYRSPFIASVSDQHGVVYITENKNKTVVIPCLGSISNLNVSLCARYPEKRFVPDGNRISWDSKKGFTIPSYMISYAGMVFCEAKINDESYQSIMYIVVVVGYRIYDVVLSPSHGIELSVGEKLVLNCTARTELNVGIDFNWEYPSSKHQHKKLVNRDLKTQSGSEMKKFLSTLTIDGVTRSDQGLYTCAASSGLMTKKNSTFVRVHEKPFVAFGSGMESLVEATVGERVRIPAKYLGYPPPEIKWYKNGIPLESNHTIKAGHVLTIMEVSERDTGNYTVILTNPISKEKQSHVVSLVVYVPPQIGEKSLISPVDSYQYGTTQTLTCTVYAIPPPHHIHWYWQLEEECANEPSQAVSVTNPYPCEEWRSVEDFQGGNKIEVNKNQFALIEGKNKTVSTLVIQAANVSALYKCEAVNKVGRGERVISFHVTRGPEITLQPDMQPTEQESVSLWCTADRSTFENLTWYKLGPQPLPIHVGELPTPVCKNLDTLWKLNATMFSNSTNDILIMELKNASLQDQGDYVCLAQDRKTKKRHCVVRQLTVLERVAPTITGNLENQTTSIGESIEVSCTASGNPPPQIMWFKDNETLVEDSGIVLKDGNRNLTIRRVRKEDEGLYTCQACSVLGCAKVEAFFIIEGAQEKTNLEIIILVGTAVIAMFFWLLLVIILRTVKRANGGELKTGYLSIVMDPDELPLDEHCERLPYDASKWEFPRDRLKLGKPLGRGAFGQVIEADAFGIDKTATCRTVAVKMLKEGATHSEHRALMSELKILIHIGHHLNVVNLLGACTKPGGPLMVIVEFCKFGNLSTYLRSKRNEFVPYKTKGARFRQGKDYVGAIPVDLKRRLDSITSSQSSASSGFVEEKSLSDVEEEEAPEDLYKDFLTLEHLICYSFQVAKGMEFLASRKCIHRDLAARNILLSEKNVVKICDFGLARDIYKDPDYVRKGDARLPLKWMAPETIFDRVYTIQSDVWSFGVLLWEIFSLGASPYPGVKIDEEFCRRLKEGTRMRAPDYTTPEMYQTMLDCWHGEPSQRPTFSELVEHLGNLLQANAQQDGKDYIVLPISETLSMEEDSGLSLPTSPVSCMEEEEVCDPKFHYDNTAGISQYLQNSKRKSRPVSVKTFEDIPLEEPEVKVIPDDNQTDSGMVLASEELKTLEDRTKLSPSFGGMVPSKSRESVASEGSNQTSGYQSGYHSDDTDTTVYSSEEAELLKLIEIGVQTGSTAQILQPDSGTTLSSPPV

Ret = target: T5, Ret (Homo sapiens, UniProt P07949); experiment: AlphaScreen kinase assay, Ret; details: read-out: IC50, activity toward kinase Ret
T5 construct: P1378.pET-SF BI-PTP RET H661-R1012 HIS; made in house
T5 sequence (P07949 with tags, fused parts or gaps): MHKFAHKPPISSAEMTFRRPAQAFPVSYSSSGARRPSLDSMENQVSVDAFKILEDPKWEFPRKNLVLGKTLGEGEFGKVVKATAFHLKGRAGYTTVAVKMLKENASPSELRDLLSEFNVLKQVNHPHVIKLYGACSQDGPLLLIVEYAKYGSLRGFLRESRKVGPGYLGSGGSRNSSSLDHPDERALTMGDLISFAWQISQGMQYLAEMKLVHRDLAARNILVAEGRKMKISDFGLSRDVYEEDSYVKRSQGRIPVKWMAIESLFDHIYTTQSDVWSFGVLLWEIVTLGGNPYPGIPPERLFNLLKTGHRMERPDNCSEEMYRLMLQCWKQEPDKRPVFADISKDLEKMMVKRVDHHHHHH

IKK beta = target: T6, IKK beta (Homo sapiens, UniProt O14920); experiment: AlphaScreen kinase assay, IKK beta; details: read-out: IC50, activity toward kinase IKK beta
T6 sequence (O14920 1-756): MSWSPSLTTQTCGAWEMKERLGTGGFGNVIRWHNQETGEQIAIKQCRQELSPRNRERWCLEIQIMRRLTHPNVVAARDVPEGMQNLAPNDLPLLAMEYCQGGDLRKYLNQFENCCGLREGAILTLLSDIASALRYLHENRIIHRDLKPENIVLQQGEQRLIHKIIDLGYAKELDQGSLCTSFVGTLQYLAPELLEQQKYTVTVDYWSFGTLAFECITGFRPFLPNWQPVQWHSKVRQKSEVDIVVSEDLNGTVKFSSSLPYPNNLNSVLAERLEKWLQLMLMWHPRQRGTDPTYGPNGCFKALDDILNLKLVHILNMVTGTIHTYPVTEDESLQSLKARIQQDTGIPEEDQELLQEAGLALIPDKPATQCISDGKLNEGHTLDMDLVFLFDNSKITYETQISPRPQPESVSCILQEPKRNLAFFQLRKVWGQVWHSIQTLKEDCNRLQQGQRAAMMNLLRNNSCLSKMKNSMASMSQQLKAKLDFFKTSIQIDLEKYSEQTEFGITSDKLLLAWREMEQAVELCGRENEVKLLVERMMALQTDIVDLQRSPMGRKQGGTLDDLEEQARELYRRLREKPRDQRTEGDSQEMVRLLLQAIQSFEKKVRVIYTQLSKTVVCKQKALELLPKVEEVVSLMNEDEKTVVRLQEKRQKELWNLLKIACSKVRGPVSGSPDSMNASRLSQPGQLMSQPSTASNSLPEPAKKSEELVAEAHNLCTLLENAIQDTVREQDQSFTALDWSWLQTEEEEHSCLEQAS

MAP2K1 = target: T7, MAP2K1 (Homo sapiens, UniProt Q02750); experiment: Z'-Lyte FRET kinase assay (Invitrogen), MAP2K1; details: read-out: IC50, activity toward kinase MAP2K1
T7 construct: purchased Invitrogen (assay run by Invitrogen)
T7 sequence (Q02750 whole entry): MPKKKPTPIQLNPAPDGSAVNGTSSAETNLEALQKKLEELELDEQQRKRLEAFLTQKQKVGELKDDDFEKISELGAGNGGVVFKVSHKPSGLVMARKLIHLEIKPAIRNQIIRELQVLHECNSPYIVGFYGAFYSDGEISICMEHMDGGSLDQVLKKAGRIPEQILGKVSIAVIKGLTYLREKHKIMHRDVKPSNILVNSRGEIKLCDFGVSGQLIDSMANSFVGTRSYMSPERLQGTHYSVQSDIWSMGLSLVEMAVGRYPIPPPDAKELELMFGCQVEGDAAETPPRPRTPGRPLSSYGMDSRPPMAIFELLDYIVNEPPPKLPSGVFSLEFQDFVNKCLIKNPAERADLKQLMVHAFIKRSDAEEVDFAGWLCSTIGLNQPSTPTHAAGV

Stk6 = target: T8, Stk6 (Homo sapiens, UniProt O14965); experiment: Z'-Lyte FRET kinase assay (Invitrogen), Stk6; details: read-out: IC50, activity toward kinase Stk6
T8 construct: purchased Invitrogen (Carlsbad, Calif.), screening service
T8 sequence (O14965 1-403): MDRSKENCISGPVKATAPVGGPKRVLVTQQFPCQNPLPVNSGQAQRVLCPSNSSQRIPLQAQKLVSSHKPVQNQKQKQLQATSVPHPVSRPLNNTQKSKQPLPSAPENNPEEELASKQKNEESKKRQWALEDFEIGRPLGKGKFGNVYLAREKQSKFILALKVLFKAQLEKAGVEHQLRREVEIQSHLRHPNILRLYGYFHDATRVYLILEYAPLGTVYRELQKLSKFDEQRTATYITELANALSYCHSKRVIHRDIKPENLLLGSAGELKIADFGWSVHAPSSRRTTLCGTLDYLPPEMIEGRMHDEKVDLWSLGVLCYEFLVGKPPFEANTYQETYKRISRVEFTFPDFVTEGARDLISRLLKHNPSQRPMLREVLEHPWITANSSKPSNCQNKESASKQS

Flt1 = target: T9, Flt1 (Homo sapiens, UniProt P17948); experiment: AlphaScreen kinase assay, Flt1; details: read-out: IC50, activity toward kinase Flt1
T9 construct: P1826.pETN6 BI-PTP FLT1 M799-D1165-X WT; His6 (N); made in house; host or cells: E. coli (PTP1B co-expressed)
T9 sequence (P17948 with tags, fused parts or gaps): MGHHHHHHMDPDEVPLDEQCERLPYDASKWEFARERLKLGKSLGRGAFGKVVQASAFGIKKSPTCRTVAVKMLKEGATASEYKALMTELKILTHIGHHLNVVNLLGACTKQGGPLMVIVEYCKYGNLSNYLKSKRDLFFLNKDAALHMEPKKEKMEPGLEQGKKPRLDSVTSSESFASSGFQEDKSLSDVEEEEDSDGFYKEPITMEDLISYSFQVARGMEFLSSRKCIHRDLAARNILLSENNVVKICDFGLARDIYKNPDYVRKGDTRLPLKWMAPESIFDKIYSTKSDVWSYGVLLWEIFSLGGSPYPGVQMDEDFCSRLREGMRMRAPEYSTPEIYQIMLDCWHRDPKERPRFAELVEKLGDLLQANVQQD

Kit = target: T10, Kit (Homo sapiens, UniProt P10721); experiment: AlphaScreen kinase assay, Kit; details: read-out: IC50, activity toward kinase Kit
T10 construct: P1332.N6 BI PTP KIT M552-K948-X COD; His6 (N); made in house; host or cells: E. coli (PTP1B co-expressed)
T10 sequence (P10721 with tags, fused parts or gaps): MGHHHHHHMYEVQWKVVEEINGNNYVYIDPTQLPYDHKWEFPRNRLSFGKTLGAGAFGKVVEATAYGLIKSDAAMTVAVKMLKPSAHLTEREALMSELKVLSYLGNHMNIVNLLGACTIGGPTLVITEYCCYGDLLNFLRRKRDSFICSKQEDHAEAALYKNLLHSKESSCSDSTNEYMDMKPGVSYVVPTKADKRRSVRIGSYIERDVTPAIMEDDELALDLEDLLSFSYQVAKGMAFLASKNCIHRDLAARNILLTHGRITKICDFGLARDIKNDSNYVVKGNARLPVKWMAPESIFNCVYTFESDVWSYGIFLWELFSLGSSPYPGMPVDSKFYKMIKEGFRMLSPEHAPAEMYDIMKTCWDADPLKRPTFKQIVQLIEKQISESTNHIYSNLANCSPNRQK

Akt3 = Akt3 (Homo sapiens, UniProt Q9Y243); experiment: AlphaScreen kinase assay, Akt3; details: read-out: IC50, activity toward kinase Akt3
Akt3, sequence (Q9Y243 whole entry): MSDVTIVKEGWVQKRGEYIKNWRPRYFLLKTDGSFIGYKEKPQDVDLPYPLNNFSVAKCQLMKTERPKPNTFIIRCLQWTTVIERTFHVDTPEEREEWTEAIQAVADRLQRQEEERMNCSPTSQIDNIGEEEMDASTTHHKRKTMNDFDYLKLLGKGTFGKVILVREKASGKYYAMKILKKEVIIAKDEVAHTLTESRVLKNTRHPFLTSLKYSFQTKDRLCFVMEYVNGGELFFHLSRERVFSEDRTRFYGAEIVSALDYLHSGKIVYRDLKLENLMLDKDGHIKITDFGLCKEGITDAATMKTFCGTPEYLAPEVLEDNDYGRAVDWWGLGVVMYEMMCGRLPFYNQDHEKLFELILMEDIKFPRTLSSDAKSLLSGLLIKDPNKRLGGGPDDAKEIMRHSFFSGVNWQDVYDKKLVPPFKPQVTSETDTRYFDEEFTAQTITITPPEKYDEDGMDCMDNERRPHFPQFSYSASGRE
Procedure, shortened: (§1)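 Biotinylated peptide substrate phosphorylation detected by AlphaScreen with phospho-specific antibody acceptor beads and streptavidin donor beads. Compounds tested as 8-point 1:3 serial dilutions from 20 mM DMSO stocks.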

Jnk3 = target: T11, Jnk3 (Homo sapiens, UniProt P53779); experiment: AlphaScreen kinase assay, Jnk3; details: read-out: IC50, activity toward kinase Jnk3
T11 construct: purchased Upstate Biotechnology
T11 sequence (P53779 whole entry): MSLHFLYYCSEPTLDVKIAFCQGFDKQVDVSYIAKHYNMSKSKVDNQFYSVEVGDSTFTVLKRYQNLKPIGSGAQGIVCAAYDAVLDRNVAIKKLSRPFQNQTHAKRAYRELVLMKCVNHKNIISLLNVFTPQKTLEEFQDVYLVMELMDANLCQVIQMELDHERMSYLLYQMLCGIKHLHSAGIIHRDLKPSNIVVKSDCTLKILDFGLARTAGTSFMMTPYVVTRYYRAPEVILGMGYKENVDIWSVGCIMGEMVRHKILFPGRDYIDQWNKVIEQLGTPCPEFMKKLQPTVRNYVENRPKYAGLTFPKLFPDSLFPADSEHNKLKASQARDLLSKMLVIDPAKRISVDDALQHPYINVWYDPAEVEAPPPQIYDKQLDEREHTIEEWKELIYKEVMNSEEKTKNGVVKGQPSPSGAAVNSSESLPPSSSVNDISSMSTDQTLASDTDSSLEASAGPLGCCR

B-Raf = target: T12, B-Raf (Homo sapiens, UniProt P15056); experiment: AlphaScreen kinase assay, B-Raf; details: read-out: IC50, activity toward kinase B-Raf
T12 construct: purchased Upstate Biotechnology

c-Raf-1 = target: T13, c-Raf-1 (Homo sapiens, UniProt P04049); experiment: AlphaScreen kinase assay, c-Raf-1; details: read-out: IC50, activity toward kinase c-Raf-1
T13 construct: purchased Upstate Biotechnology
T13 sequence (P04049 whole entry): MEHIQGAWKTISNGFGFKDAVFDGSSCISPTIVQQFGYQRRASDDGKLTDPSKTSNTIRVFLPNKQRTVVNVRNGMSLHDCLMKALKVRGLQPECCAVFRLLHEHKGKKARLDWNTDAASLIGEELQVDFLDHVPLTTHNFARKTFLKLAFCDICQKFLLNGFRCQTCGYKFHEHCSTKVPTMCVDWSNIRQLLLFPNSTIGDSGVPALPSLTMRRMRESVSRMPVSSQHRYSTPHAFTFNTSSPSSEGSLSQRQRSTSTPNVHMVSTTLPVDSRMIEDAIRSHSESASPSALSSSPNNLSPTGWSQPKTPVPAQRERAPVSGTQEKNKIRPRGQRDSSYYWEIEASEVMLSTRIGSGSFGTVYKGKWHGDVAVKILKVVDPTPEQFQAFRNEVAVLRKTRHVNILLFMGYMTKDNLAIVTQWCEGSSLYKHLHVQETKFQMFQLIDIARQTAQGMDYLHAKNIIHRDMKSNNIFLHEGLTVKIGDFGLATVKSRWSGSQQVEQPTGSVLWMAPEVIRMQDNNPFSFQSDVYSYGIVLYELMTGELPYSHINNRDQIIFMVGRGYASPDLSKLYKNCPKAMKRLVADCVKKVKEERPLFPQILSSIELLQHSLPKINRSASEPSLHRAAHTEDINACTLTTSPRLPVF

MAP4K4 = MAP4K4 (Homo sapiens, UniProt O95819); experiment: AlphaScreen kinase assay, MAP4K4; details: read-out: IC50, activity toward kinase MAP4K4
Met = target: T14, Met (Homo sapiens, UniProt P08581); experiment: AlphaScreen kinase assay, Met; details: read-out: IC50, activity toward kinase Met
T14 construct: P1818.pETN6 BI-PTP MET G1056-G1364-X WT; His6 (N); made in house; host or cells: E. coli (PTP1B co-expressed)
Procedure, shortened: as §1

T1 sequence (P15056 with tags, fused parts or gaps V600E): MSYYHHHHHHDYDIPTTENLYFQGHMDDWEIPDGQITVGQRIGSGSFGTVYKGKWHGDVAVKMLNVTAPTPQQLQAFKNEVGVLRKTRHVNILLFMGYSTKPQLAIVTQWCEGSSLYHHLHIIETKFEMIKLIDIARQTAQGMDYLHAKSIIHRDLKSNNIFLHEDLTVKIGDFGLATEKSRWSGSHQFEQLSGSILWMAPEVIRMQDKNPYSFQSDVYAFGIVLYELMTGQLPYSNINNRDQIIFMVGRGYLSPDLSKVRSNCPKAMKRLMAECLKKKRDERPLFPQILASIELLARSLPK

| IC50 (Kdr) [µM] | IC50 (IKK beta) [µM] | IC50 (Stk6) [µM] | IC50 (Kit) [µM] | Structure (SMILES) | further results |
| --- | --- | --- | --- | --- | --- |
| ≤ 10 | ≤ 10 | – | – | COc1cccc(C(=O)c2c[nH]c3nccc(-c4ccc(C(N)=O)cc4)c23)c1 [Compound P-0073] | IC50 (B-Raf V600E): ≤ 10 µM; IC50 (Btk): ≤ 10 µM; IC50 (FGFR1): ≤ 10 µM; IC50 (Ret): ≤ 10 µM |
| ≤ 10 | ≤ 10 | – | – | Nc1cccc(C(=O)c2c[nH]c3ncccc23)c1 [Compound P-0096] | IC50 (FGFR1): ≤ 10 µM; IC50 (Ret): ≤ 10 µM |
| ≤ 10 | ≤ 10 | ≤ 10 | – | C=Cc1ccc(-c2ccnc3[nH]ccc23)cc1 [Compound P-0098] | IC50 (MAP2K1): ≤ 10 µM |
| ≤ 10 | ≤ 10 | ≤ 10 | – | Cc1ccc(-c2ccnc3[nH]ccc23)cc1N [Compound P-0111] | IC50 (MAP2K1): ≤ 10 µM |
| ≤ 10 | ≤ 10 | ≤ 10 | ≤ 10 | Clc1ccc(-c2ccnc3[nH]ccc23)cn1 [Compound P-0127] | IC50 (Flt1): ≤ 10 µM; IC50 (Akt3): ≤ 10 µM |
| ≤ 10 | ≤ 10 | ≤ 10 | ≤ 10 | c1cc2cc(-c3ccsc3)cnc2[nH]1 [Compound P-0133] | IC50 (Jnk3): ≤ 10 µM |
| ≤ 10 | ≤ 10 | ≤ 10 | – | Cc1nc(-c2ccnc3[nH]ccc23)no1 [Compound P-0163] | – |
| ≤ 10 | ≤ 10 | ≤ 10 | – | N#CCc1ccc(-c2c[nH]c3ncccc23)cc1 [Compound P-0164] | – |
| ≤ 10 | ≤ 10 | ≤ 10 | – | Fc1cc(F)cc(-c2ccnc3[nH]cc(Sc4ccc(Cl)cc4)c23)c1 [Compound P-0172] | – |
| ≤ 10 | ≤ 10 | ≤ 10 | – | CS(=O)(=O)c1ccc(-c2c[nH]c3ncccc23)cc1 [Compound P-0177] | IC50 (Flt1): ≤ 10 µM; IC50 (MAP2K1): ≤ 10 µM |
| ≤ 10 | ≤ 10 | ≤ 10 | ≤ 10 | c1csc(-c2cnc3[nH]ccc3c2)c1 [Compound P-0179] | IC50 (Jnk3): ≤ 10 µM; IC50 (Ret): ≤ 10 µM |
| ≤ 10 | ≤ 10 | – | ≤ 10 | COc1cccc(-c2c[nH]c3ncccc23)c1 [Compound P-0216] | – |
| – | ≤ 10 | ≤ 10 | – | CCS(=O)(=O)c1ccc(-c2c[nH]c3ncccc23)cc1 [Compound P-0272] | – |
| ≤ 10 | ≤ 10 | – | – | Cc1cc(-c2c(C)[nH]c3ncccc23)ccc1F [Compound P-0376] | – |
| – | ≤ 10 | – | ≤ 10 | c1ccc2sc(-c3ccnc4[nH]ccc34)cc2c1 [Compound P-0404] | IC50 (FGFR1): ≤ 10 µM; IC50 (Flt1): ≤ 10 µM; IC50 (Akt3): ≤ 10 µM |
| – | ≤ 10 | ≤ 10 | – | C(#Cc1ccnc2[nH]ccc12)c1ccccc1 [Compound P-0436] | IC50 (Akt3): ≤ 10 µM |
| – | ≤ 10 | – | ≤ 10 | CS(=O)(=O)c1ccc(-c2cnc3[nH]ccc3c2)cc1 [Compound P-0682] | IC50 (Jnk3): ≤ 10 µM; IC50 (Ret): ≤ 10 µM |
| – | ≤ 10 | – | – | CCCNS(=O)(=O)c1ccc(F)c(C(=O)c2c[nH]c3ncc(-c4cccnc4)cc23)c1F [Compound P-0896] | IC50 (B-Raf): ≤ 10 µM; IC50 (B-Raf V600E): ≤ 10 µM; IC50 (c-Raf-1): ≤ 10 µM; IC50 (FGFR1): ≤ 10 µM; IC50 (MAP4K4): ≤ 10 µM |
| ≤ 10 | ≤ 10 | – | ≤ 10 | CN(C)c1ccc(Nc2cnc3[nH]ccc3c2)cc1 [Compound P-0962] | IC50 (B-Raf V600E): ≤ 10 µM; IC50 (Flt1): ≤ 10 µM; IC50 (Jnk3): ≤ 10 µM; IC50 (Met): ≤ 10 µM; IC50 (Akt3): ≤ 10 µM |

— patent publication US8415469B2, “Compounds and methods for kinase modulation, and indications therefor” (Plexxikon Inc., priority 2005, dated 2013)
